Results: publication PMC10688702, “The indole motif is essential for the antitrypanosomal activity of N^5-substituted paullones” (PLOS ONE, 2023)

Key:
[1] = target: T1, trypanothione synthetase of L. infantum (LiTryS) (Leishmania infantum, UniProt A4I2Z3); test: TryS activity screening assay on recombinant LiTryS; format: biochemical; conditions: read-out: LiTryS activity [% at 30 μM]
In short: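 N-His-tagged TryS from E. coli, purified by IMAC and SEC; end-point reaction with 150 μM ATP, 2 mM Spd, GSH 0.05 mM (TbTryS) or 0.25 mM (LiTryS), enzyme 3*10^−5 (TbTryS) or 2*10^−5 (LiTryS) μmol*min^-1*mL^-1. Stopped after 15 min with BIOMOL GREEN; A650 activity relative to blank-corrected DMSO control.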

[2] = Thermodynamic aqueous solubility, shake-flask method and HPLC-UV; format: physicochemical; conditions: phosphate-buffered saline, aqueous buffer, thermodynamic from solid, PBS pH 7.4, 25°C, up to 72 h, HPLC-UV, logS of molar solubility [M]
Protocol: (§1) Phosphate-buffered saline pH 7.4 was prepared according to the European Pharmacopeia 10.4 by dissolving 2.38 g sodium monohydrogen phosphate dodecahydrate, 0.19 g potassium dihydrogen phosphate and 8.0 g sodium chloride in demineralised water (to a total volume of 1000 mL). The pH was adjusted to a value of 7.4 with hydrochloric acid. The buffer was filtered through a 0.45 μm membrane filter (Chromafil® Xtra PES-45/25) before use.
The thermodynamic aqueous solubility was determined by a miniaturised shake-flask method. […] A negative control with the buffer (400 μL) was incubated for every time point and measured likewise. After incubation for 24 h, 48 h and 72 h, the vials were checked for undissolved compound; then the filter plunger was punched into the vial for filtration. […] The calibration curve was obtained from at least three dilutions and five measuring points from a DMSO stock solution of the respective compound.

[3] = Kinetic aqueous solubility by nephelometry; format: physicochemical; conditions: phosphate-buffered saline, aqueous buffer, kinetic from dmso stock, PBS pH 7.4, 1% DMSO, 25°C, logS = decadic logarithm of molar solubility [M]
Protocol: as §1
The kinetic aqueous solubility was determined by nephelometry. The measurements were performed on the NEPHELOstar Plus, with accompanying software Omega 5.11 and MARS 3.20 (BMG LABTECH, Ortenberg, Germany). Generally, 2 dilution series of 1–2 weighed portions of each substance were measured. First, stock solutions of the compounds were prepared in DMSO. A series of dilutions in DMSO were prepared from one stock solution to obtain at least 3 concentrations below and 3 concentrations above the precipitation point in the measured series. The specific concentrations were usually measured as duplicates.
The 96-well plate (Corning UV transparent flat-bottom 96-well plate, Corning Incorporated, Kennenbunk, ME, USA) was inspected for contamination and scratches and measured without samples prior to the solubility measurement of the compounds. 198 μL of phosphate-buffered saline pH 7.4 was placed in a 96 well plate for each well to be measured. 2 μL of a DMSO solution was added and immediately mixed by moving the pipette plunger. This solution either contained no substance—and served as a blank for the measurement (3 wells)—or the respective DMSO dilution of the substance (2–4 wells). The concentration of the solvent DMSO in each measured solution was 1%. The concentration of the compound corresponds to a 1:100 dilution compared to the respective DMSO dilution. The well plate bottom was cleaned with a lint-free cloth and compressed air and inspected for impurities before measurement. After shaking at 500 rpm for 10 s (double orbital), the measurement was carried out in the nephelometer with the laser intensity set to 80% and beam focus of 2.5 mm at a temperature of 25°C.
The obtained measuring points, relative nephelometric units (RNU) per compound concentration, were used to model two straight lines: one straight line with constant low readings and slope → 0 characterises the concentration range where no precipitation has taken place yet; The other straight line has a steep slope and increase of the RNU per concentration and characterises the concentrations at which precipitation takes place in the respective sample vessels.
The evaluation was carried out by calculating the two straight lines and their point of intersection. Outliers and values in a saturation range for the kick-off curve (usually >800 kRNU) were not used to create the straight lines and are listed separately in the evaluation file. […] The x-value of the intersection of the two straight lines represents the kinetic solubility. The results of two dilution series are additionally indicated as range (in brackets). For measurements of 3 or more series, a mean value with standard deviation is provided. The logS value describes the decadic logarithm of the molar solubility: logS (molar solubility [M]).

[4] = tested on: L. infantum amastigotes (intracellular, in J774.A1 macrophages); test: Viability assay for L. infantum amastigotes; format: cell-based; conditions: Leishmania infantum, J774.A1, 24 h, read-out: L. infantum amastigote viability [% at 20 μM]
In short: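 Luciferase-expressing L. infantum metacyclic promastigotes (MHOM/MA/67/ITMAP263) infected J774.A1 murine macrophages at 1:10 for 24 h at 37 °C, 5% CO2. After compound treatment, a further 24 h incubation followed. Percent amastigote viability, in triplicate, was normalised to host-cell density by a propidium iodide correction factor.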

[5] = tested on: Crithidia fasciculata TryS (CfTryS); parameters: method as in ref 24–26 = [24]; 24 Stuhlmann F, Jäger T, Flohé L, Schinzer D, inventors. N 5 -substituted benzo[2,3]azepino[4,5- b ]indol-6-ones for treating tropical diseases. European Patent Office patent EP 1 757 607 A1. 2007 Feb || [25]; PMID 27070550; doi:10.1371/journal.pntd.0004617; 25 Benítez D , Medeiros A , Fiestas L , Panozzo-Zenere EA , Maiwald F , Prousis KC , et al . Identification of novel chemical scaffolds inhibiting trypanothione synthetase from pathogenic trypanosomat || [26]; PMID 32588679; doi:10.1080/14756366.2020.1780227; 26 Medeiros A , Benítez D , Korn RS , Ferreira VC , Barrera E , Carrión F , et al . Mechanistic and biological characterisation of novel N 5 -substituted paullones targeting the biosynthesis of trypan; conditions: cited from earlier work
[6] = tested on: trypanothione synthetase of T. b. brucei (TbTryS); parameters: method as in PMID 27070550; conditions: cited from earlier work
LiTryS = tested on: LiTryS; parameters: method as in ref 25, 26 = [25]; PMID 27070550; doi:10.1371/journal.pntd.0004617; 25 Benítez D , Medeiros A , Fiestas L , Panozzo-Zenere EA , Maiwald F , Prousis KC , et al . Identification of novel chemical scaffolds inhibiting trypanothione synthetase from pathogenic trypanosomat || [26]; PMID 32588679; doi:10.1080/14756366.2020.1780227; 26 Medeiros A , Benítez D , Korn RS , Ferreira VC , Barrera E , Carrión F , et al . Mechanistic and biological characterisation of novel N 5 -substituted paullones targeting the biosynthesis of trypan; conditions: versus substrates Spd, Gsp, ATP, GSH; cited from earlier work
[7] = tested on: bloodstream form of T. b. brucei strain 427; parameters: method as in PMID 27070550; conditions: displayed for comparison, read-out: T. b. brucei (BS) [EC50; cited from earlier work
[8] = target: T1, trypanothione synthetase of L. infantum (LiTryS); conditions: Fig 3, known paullones; cited from earlier work
TryS = tested on: TryS; parameters: method as in Torrie et al. 18; conditions: ref Torrie et al. 18; cited from earlier work

T1 sequence (A4I2Z3 entry or part of it): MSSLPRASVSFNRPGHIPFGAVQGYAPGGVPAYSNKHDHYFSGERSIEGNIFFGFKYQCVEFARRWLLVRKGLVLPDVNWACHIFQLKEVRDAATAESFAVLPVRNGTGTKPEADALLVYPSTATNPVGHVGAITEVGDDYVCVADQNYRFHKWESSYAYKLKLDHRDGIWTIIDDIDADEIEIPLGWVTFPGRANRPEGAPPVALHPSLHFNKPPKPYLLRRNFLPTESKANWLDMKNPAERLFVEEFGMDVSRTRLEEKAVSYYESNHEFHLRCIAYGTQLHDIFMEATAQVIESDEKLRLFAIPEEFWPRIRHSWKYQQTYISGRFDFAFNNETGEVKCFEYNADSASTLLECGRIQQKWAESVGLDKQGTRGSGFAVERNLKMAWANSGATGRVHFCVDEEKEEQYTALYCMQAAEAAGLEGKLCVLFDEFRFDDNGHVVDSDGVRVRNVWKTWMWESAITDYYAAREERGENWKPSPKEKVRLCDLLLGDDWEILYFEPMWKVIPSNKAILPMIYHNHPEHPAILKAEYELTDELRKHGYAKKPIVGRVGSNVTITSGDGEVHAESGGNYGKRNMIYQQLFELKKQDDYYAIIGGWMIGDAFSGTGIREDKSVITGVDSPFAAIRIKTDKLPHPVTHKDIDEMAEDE

Compound | activity at 30 µM [1] | solubility thermodynamic at 72 h [2] | solubility kinetic at 10 s [3] | viability at 20 µM [4] | also measured
CC1(C)CCc2ccccc2N(CC(=O)NCCN2CCNCC2)C1=O.Cl.Cl [3d, 2-(3,3-Dimethyl-2-oxo-2,3,4,5-tetrahydro-1H-benzo[b]azepin-1-yl)-N-[2-(piperazin-1-yl)ethyl]acetamide dihydrochloride] | 100 ± 5.1% | > 0.114 M | > 0.002 M | 78.1 ± 14.4% | 
CNCCNC(=O)CN1C(=O)Cc2c([nH]c3ccc(Br)cc23)-c2ccccc21 [1b] |  |  |  |  | CfTryS inhibition at 10 μM compound concentration [5]: 92%
O=C(CN1C(=O)CCCc2ccccc21)N1CCCC1 [2j, 1-[2-Oxo-2-(pyrrolidin-1-yl)ethyl]-1,3,4,5-tetrahydro-2H-benzo[b]-azepin-2-one] | 100 ± 6.6% | > 0.049 M | > 0.00398 M |  | 
CNCCNC(=O)CN1C(=O)Cc2c([nH]c3ccc(Br)cc23)-c2ccc(Cl)cc21 [1c] |  |  |  |  | TbTryS activity [% at 30 μM] ([6]; 30 μM, displayed for comparison): 41.0 ± 6.0%; IC50 ([6]; used as inhibition control, read-out: concentration that inhibited 50% TryS activity (TbTryS)): 30 µM; inhibition mechanism on LiTryS (LiTryS): competitive to Spd and Gsp, and uncompetitive to ATP and GSH; EC50 [7]: 4.3 ± 0.7 µM
NCCNC(=O)CN1C(=O)Cc2c([nH]c3ccc(Br)cc23)-c2ccc(Cl)cc21 [1d] |  |  |  |  | IC50 [8]: 0.3 µM
Cl.Cl.O=C(CN1C(=O)CCCc2ccccc21)NCCN1CCNCC1 [2o, 2-(2-Oxo-2,3,4,5-tetrahydro-1H-benzo[b]azepin-1-yl)-N-[2-(piperazin-1-yl)ethyl]acetamide dihydrochloride] | 98.8 ± 18.7% | > 0.248 M | > 0.001 M | 98.4 ± 11.8% | 
CN1CCN(CCCN2c3ccccc3Sc3ccc(Cl)cc32)CC1 [prochlorperazine] |  |  |  |  | mode of TryS inhibition (TryS): Spd competitive behaviour
Cl.Cl.O=C(CN1C(=O)Cc2ccccc2-c2ccccc21)NCCN1CCNCC1 [4d, 2-(6-Oxo-6,7-dihydro-5H-dibenzo[b,d]azepin-5-yl)-N-[2-(piperazin-1-yl)ethyl]acetamide dihydrochloride] | 99.5 ± 3.1% | > 0.0562 M | > 0.0002 M | 89.5 ± 2.8% | 
CON=C1CCC(=O)N(CC(=O)N2CCCC2)c2ccccc21 (mixture of isomers) [5c, (E/Z)-5-(Methoxyimino)-1-[2-oxo-2-(pyrrolidin-1-yl)ethyl]-1,3,4,5-tetrahydro-2H-benzo[b]azepin-2-one] | 86.9 ± 3.6% | 0.0263 M | > 0.00398 M |  | 
